Measurements: PubChem BioAssay AID248 (DTP/NCI, 2004)
Where “and” joins values, the source holds several entries; their conditions need not be identical. Equal entries are not always repeated. Inconclusive results and toxic doses are left out. Rule as the data show it: active = T/C of 150% or more; inactive = T/C below 125%.

System: L1210 leukemia ip in BDF1 mice, survival T/C
Experiment: NCI In Vivo Anticancer Drug Screen. Data for tumor model L1210 Leukemia (intraperitoneal) in B6D2F1 (BDF1) mice
Conditions: higher = longer survival
How it was run: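 Ratio derived from survival: compound-dosed mice over vehicle-dosed mice, all bearing a transplantable tumor.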

[1] = endpoint: mean survival time, dose: 25.0 mg/kg/injection, schedule: Q01DX009 (ip), vehicle: water
[2] = endpoint: mean survival time, dose: 50.0 mg/kg/injection, schedule: Q01DX009 (ip), vehicle: water
[3] = endpoint: mean survival time, dose: 100.0 mg/kg/injection, schedule: Q01DX009 (ip), vehicle: water
[4] = endpoint: mean survival time, dose: 200.0 mg/kg/injection, schedule: Q01DX009 (ip), vehicle: water
[5] = endpoint: mean survival time, dose: 400.0 mg/kg/injection, schedule: Q01DX009 (ip), vehicle: water
[6] = endpoint: mean survival time, dose: 50.0 mg/kg/injection, schedule: Q01DX009 (ip), vehicle: saline
[7] = endpoint: mean survival time, dose: 100.0 mg/kg/injection, schedule: Q01DX009 (ip), vehicle: saline
[8] = endpoint: mean survival time, dose: 200.0 mg/kg/injection, schedule: Q01DX009 (ip), vehicle: saline
[9] = endpoint: mean survival time, dose: 100.0 mg/kg/injection, schedule: Q04DX002 (ip), vehicle: saline with Tween-80
[10] = endpoint: mean survival time, dose: 200.0 mg/kg/injection, schedule: Q04DX002 (ip), vehicle: saline with Tween-80
[11] = endpoint: mean survival time, dose: 400.0 mg/kg/injection, schedule: Q04DX002 (ip), vehicle: saline with Tween-80
[12] = endpoint: mean survival time, dose: 100.0 mg/kg/injection, schedule: Q04DX003 (ip), vehicle: saline with Tween-80
[13] = endpoint: mean survival time, dose: 200.0 mg/kg/injection, schedule: Q04DX003 (ip), vehicle: saline with Tween-80
[14] = endpoint: mean survival time, dose: 400.0 mg/kg/injection, schedule: Q04DX003 (ip), vehicle: saline with Tween-80
[15] = endpoint: mean survival time, dose: 100.0 mg/kg/injection, schedule: Q01DX009 (ip), vehicle: Klucel (hydroxypropylcellulose) (HPC)
[16] = endpoint: mean survival time, dose: 100.0 mg/kg/injection, schedule: Q04DX003 (ip), vehicle: Klucel (hydroxypropylcellulose) (HPC)
[17] = endpoint: mean survival time, dose: 200.0 mg/kg/injection, schedule: Q01DX009 (ip), vehicle: Klucel (hydroxypropylcellulose) (HPC)
[18] = endpoint: mean survival time, dose: 200.0 mg/kg/injection, schedule: Q04DX003 (ip), vehicle: Klucel (hydroxypropylcellulose) (HPC)
[19] = endpoint: mean survival time, dose: 400.0 mg/kg/injection, schedule: Q04DX003 (ip), vehicle: Klucel (hydroxypropylcellulose) (HPC)

Measured: T/C

O=C(N=c1cc(-c2ccc(Cl)cc2)ss1)C(Cc1ccccc1)N1C(=O)c2ccccc2C1=O (stereo not given)
inactive: [1] 102 % of control | [2] 102 % of control | [3] 96 % of control | [4] 95 % of control | [5] 87 % of control

OC1CCSC1 (stereo not given)
inactive: [6] 95 % of control | [7] 95 % of control | [8] 98 % of control

CCCC1(CC)CNC(=O)NC1=O (stereo not given)
inactive: endpoint: mean survival time, dose: 100.0 mg/kg/injection, schedule: Q01DX Z (ip), vehicle: saline 97 % of control | endpoint: mean survival time, dose: 200.0 mg/kg/injection, schedule: Q01DX Z (ip), vehicle: saline 92 % of control

CCCCNC(=O)n1nnc2ccccc21
inactive: [9] 100 % of control and 103 % of control | [10] 105 % of control and 92 % of control | [11] 96 % of control and 116 % of control

CCCCCCCCP(C)(=O)CCCCCCCC
inactive: endpoint: mean survival time, dose: 100.0 mg/kg/injection, schedule: Q04DX002 (ip), vehicle: Klucel (hydroxypropylcellulose) (HPC) 105 % of control | endpoint: mean survival time, dose: 200.0 mg/kg/injection, schedule: Q04DX002 (ip), vehicle: Klucel (hydroxypropylcellulose) (HPC) 102 % of control

CC1(C)C2CCC1(C)C(OC(=O)C1OC(O)C(O)C(O)C1O)C2 (stereo not given)
inactive: [12] 102 % of control | [13] 104 % of control | [14] 102 % of control

N#CC(C(=O)c1ccccc1)c1cccc2ccccc12 (stereo not given)
inactive: endpoint: mean survival time, dose: 50.0 mg/kg/injection, schedule: Q01DX009 (ip), vehicle: Klucel (hydroxypropylcellulose) (HPC) 101 % of control | [15] 95 % of control | [16] 95 % of control | [17] 103 % of control | [18] 91 % of control | [19] 91 % of control

O=C(NCCCl)NC(Cc1ccccc1)Cc1ccccc1
inactive: [16] 95 % of control | [18] 91 % of control | [19] 95 % of control

O=c1oc2ccccc2c2c1C(c1ccc3c(c1)OCO3)C=C(c1ccc3c(c1)OCO3)O2 (stereo not given)
inactive: [1] 101 % of control | [2] 100 % of control | [3] 97 % of control | [4] 95 % of control | [5] 102 % of control

OCCN1CCN(CCCN2c3ccccc3Sc3cccnc32)CC1
inactive: endpoint: mean survival time, dose: 4.68 mg/kg/injection, schedule: Q01DX009 (ip), vehicle: saline 94 % of control | endpoint: mean survival time, dose: 9.37 mg/kg/injection, schedule: Q01DX009 (ip), vehicle: saline 104 % of control | endpoint: mean survival time, dose: 18.75 mg/kg/injection, schedule: Q01DX009 (ip), vehicle: saline 113 % of control | endpoint: mean survival time, dose: 20.0 mg/kg/injection, schedule: Q01DX009 (ip), vehicle: saline 111 % of control | endpoint: mean survival time, dose: 37.5 mg/kg/injection, schedule: Q01DX009 (ip), vehicle: saline 115 % of control | endpoint: mean survival time, dose: 40.0 mg/kg/injection, schedule: Q01DX009 (ip), vehicle: saline 112 % of control | endpoint: mean survival time, dose: 75.0 mg/kg/injection, schedule: Q01DX009 (ip), vehicle: saline 107 % of control | endpoint: median survival time, dose: 20.0 mg/kg/injection, schedule: Q01DX009 (ip), vehicle: saline 113 % of control | endpoint: median survival time, dose: 40.0 mg/kg/injection, schedule: Q01DX009 (ip), vehicle: saline 112 % of control

CCCC(O)S(=O)(=O)O (stereo not given)
inactive: [6] 103 % of control | [7] 94 % of control | endpoint: mean survival time, dose: 100.0 mg/kg/injection, schedule: Q04DX003 (ip), vehicle: acetone 102 % of control | [8] 97 % of control | endpoint: mean survival time, dose: 200.0 mg/kg/injection, schedule: Q04DX003 (ip), vehicle: acetone 99 % of control | endpoint: mean survival time, dose: 400.0 mg/kg/injection, schedule: Q04DX003 (ip), vehicle: acetone 93 % of control

O=C(O)c1cc([N+](=O)[O-])ccc1Nc1ccccc1
inactive: [13] 95 % of control

CCCC(C)(C)C(=O)Nc1cccc(O)c1
inactive: [12] 95 % of control | [13] 95 % of control | [14] 92 % of control

BrCCC[P+](c1ccccc1)(c1ccccc1)c1ccccc1
inactive: endpoint: mean survival time, dose: 12.5 mg/kg/injection, schedule: Q01DX009 (ip), vehicle: saline with Tween-80 103 % of control | endpoint: mean survival time, dose: 25.0 mg/kg/injection, schedule: Q04DX003 (ip), vehicle: saline with Tween-80 97 % of control | endpoint: mean survival time, dose: 50.0 mg/kg/injection, schedule: Q01DX001 (ip), vehicle: saline 104 % of control | endpoint: mean survival time, dose: 50.0 mg/kg/injection, schedule: Q04DX003 (ip), vehicle: Klucel (hydroxypropylcellulose) (HPC) 107 % of control | endpoint: mean survival time, dose: 50.0 mg/kg/injection, schedule: Q04DX003 (ip), vehicle: saline with Tween-80 97 % of control | endpoint: mean survival time, dose: 100.0 mg/kg/injection, schedule: Q01DX001 (ip), vehicle: saline 116 % of control

COc1ccccc1N=NN(C)C
inactive: endpoint: mean survival time, dose: 1.0 mg/kg/injection, schedule: Q01DX009 (ip), vehicle: Klucel (hydroxypropylcellulose) (HPC) 115 % of control | endpoint: mean survival time, dose: 3.0 mg/kg/injection, schedule: Q01DX009 (ip), vehicle: Klucel (hydroxypropylcellulose) (HPC) 101 % of control | endpoint: mean survival time, dose: 3.12 mg/kg/injection, schedule: Q01DX009 (ip), vehicle: Klucel (hydroxypropylcellulose) (HPC) 100 % of control | endpoint: mean survival time, dose: 3.12 mg/kg/injection, schedule: Q04DX003 (ip), vehicle: Klucel (hydroxypropylcellulose) (HPC) 95 % of control | endpoint: mean survival time, dose: 6.0 mg/kg/injection, schedule: Q01DX009 (ip), vehicle: Klucel (hydroxypropylcellulose) (HPC) 115 % of control | endpoint: mean survival time, dose: 6.25 mg/kg/injection, schedule: Q01DX009 (ip), vehicle: Klucel (hydroxypropylcellulose) (HPC) 108 % of control | endpoint: mean survival time, dose: 6.25 mg/kg/injection, schedule: Q04DX003 (ip), vehicle: Klucel (hydroxypropylcellulose) (HPC) 109 % of control | endpoint: mean survival time, dose: 12.5 mg/kg/injection, schedule: Q01DX009 (ip), vehicle: Klucel (hydroxypropylcellulose) (HPC) 94 % of control | endpoint: mean survival time, dose: 12.5 mg/kg/injection, schedule: Q04DX003 (ip), vehicle: Klucel (hydroxypropylcellulose) (HPC) 113 % of control

COC(=O)C/C(=C\c1ccc(OC)c(OC)c1)C(=O)OC
inactive: [15] 100 % of control | [16] 91 % of control | [17] 94 % of control | [18] 95 % of control | endpoint: mean survival time, dose: 400.0 mg/kg/injection, schedule: Q01DX009 (ip), vehicle: Klucel (hydroxypropylcellulose) (HPC) 103 % of control | [19] 96 % of control

O=S(=O)(F)c1cc(Cl)ccc1CBr
inactive: endpoint: mean survival time, dose: 25.0 mg/kg/injection, schedule: Q04DX002 (ip), vehicle: saline with Tween-80 96 % of control | endpoint: mean survival time, dose: 50.0 mg/kg/injection, schedule: Q04DX002 (ip), vehicle: saline with Tween-80 100 % of control | [9] 93 % of control | [10] 104 % of control | [11] 101 % of control

CC(=O)C(Cl)C(O)(C(F)(F)F)C(F)(F)F (stereo not given)
inactive: endpoint: mean survival time, dose: 12.5 mg/kg/injection, schedule: Q01DX009 (ip), vehicle: saline 96 % of control | endpoint: mean survival time, dose: 25.0 mg/kg/injection, schedule: Q01DX009 (ip), vehicle: saline 100 % of control | [6] 110 % of control | [12] 95 % of control | [13] 104 % of control

CCCCCCSc1ccc2c(cc1=O)C(NC(C)=O)CCc1cc(OC)c(OC)c(OC)c1-2 (stereo not given)
inactive: endpoint: mean survival time, dose: 12.5 mg/kg/injection, schedule: Q04DX002 (ip), vehicle: saline 95 % of control | endpoint: mean survival time, dose: 25.0 mg/kg/injection, schedule: Q04DX002 (ip), vehicle: saline 95 % of control | endpoint: mean survival time, dose: 50.0 mg/kg/injection, schedule: Q04DX002 (ip), vehicle: saline 104 % of control
